From patent US20050228016A1, “TETRAHYDROQUINOLINES FOR MODULATING THE EXPRESSION OF EXOGENOUS GENES VIA AN ECDYSONE RECEPTOR COMPLEX” (priority 2002, published 2005)

How the values were obtained:
Gal4DBD/AaEcR (DEF) = molecular target: T1, Gal4DBD/AaEcR (DEF) (Aedes aegypti, UniProt P49880); test: cell-based; format: cell-based; conditions: 33 μM; 3T3 cells; 48 h; average of two wells
T1 construct: The wildtype D, E, and F domains from mosquito Aedes aegypti EcR; expressed in transfected cells; host or cells: 3T3 cells
Outline: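 Mouse 3T3 cells transiently co-transfected with Gal4DBD/AaEcR (DEF) and pFRLuc (5× GAL4 response element, firefly luciferase reporter). Ligand added in serum medium 4 h after transfection; single-dose testing at 33 μM.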

CfEcR + LmUSP = CfEcR + LmUSP in 3T3 cells, reporter assayed 48 h after ligand
Description: 1.9—Gal4CfEcR-DEF/VP16LmRXR-EF: This construct was prepared in the same way as switch 1.1 except LmRXR-EF (SEQ ID NO: 18) was used in place of HsRXRβ-LmRXREF chimera.
(§4) To determine if any of the compounds shown in Table 1 and Table 2 can act as inducers of reporter gene activity in a transactivation assay, these compounds were tested in NIH3T3 cells transfected with pFRLUC reporter and gene expression cassettes, 1.1 to 1.8 described in Example 1. […] At 48 hr after adding ligand, the cells were harvested and reporter activity was assayed using Dual Luciferase assay kit (Promega carporation). Total relative light units (RLU) are shown. Standard methods for culture and maintenance of the cells were followed.
(§5) Transfections: DNAs corresponding to the various switch constructs outlined in Example I, specifically switches 1.1 through 1.8, were transfected into mouse NIH3T3 cells (ATCC) as follows. Cells were harvested when they reached 50% confluency and plated in 6-, 12- or 24-well plates at 125,000, 50,000, or 25,000 cells, respectively, in 2.5, 1.0, or 0.5 ml of growth medium containing 10% fetal bovine serum (FBS), respectively. The next day, the cells were rinsed with growth medium and transfected for four hours. […] For 12-well plates, 4 μl of Superfect™ was mixed with 100 μl of growth medium. 1.0 μg of reporter construct and 0.25 μg of each receptor construct of the receptor pair to be analyzed were added to the transfection mix. A second reporter construct was added [pTKRL (Promega), 0.1 μg/transfection mix] that comprises a Renilla luciferase gene operably linked and placed under the control of a thymidine kinase (TK) constitutive promoter and was used for normalization. The contents of the transfection mix were mixed in a vortex mixer and let stand at room temperature for 30 min. At the end of incubation, the transfection mix was added to the cells maintained in 400 μl growth medium. The cells were maintained at 37° C. and 5% CO2 for four hours. At the end of incubation, 500 μl of growth medium containing 20% FBS and either dimethylsulfoxide (DMSO; control) or a DMSO solution of 0.1, 1, and 10 μM ligand was added and the cells were maintained at 37° C. and 5% CO2 for 48 hours. The cells were harvested and reporter activity was assayed. The same procedure was followed for 6 and 24 well plates as well except all the reagents were doubled for 6 well plates and reduced to half for 24-well plates.
(§6) Ligands: All ligands were dissolved in DMSO and the final concentration of DMSO was maintained at 0.1% in both controls and treatments.
(§7) Reporter Assays: Cells were harvested 48 hours after adding ligands. 125, 250, or 500 μl of passive lysis buffer (part of Dual-luciferase™ reporter assay system from Promega Corporation) were added to each well of 24- or 12- or 6-well plates respectively. The plates were placed on a rotary shaker for 15 minutes. Twenty μl of lysate were assayed. Luciferase activity was measured using Dual-luciferase™ reporter assay system from Promega Corporation following the manufacturer's instructions.

DmEcR + LmUSP = molecular target: T2, DmEcR + LmUSP (Drosophila melanogaster, UniProt P34021); conditions: DmEcR + LmUSP in 3T3 cells, reporter assayed 48 h after ligand
T2 sequence (P34021 342-878): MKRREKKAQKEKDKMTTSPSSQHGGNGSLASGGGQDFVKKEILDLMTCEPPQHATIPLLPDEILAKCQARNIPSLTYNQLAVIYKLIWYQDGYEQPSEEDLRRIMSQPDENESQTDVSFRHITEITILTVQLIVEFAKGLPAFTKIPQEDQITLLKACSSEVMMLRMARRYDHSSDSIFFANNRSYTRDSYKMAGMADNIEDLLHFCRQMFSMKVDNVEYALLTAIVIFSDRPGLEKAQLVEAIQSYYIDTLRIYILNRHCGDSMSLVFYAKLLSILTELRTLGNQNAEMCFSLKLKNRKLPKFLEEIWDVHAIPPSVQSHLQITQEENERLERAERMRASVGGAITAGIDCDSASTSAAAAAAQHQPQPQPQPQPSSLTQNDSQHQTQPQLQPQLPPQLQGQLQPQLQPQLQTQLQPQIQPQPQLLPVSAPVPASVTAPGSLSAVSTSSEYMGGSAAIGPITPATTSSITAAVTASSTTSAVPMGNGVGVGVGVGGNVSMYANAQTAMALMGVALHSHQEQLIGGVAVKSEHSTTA
Description: as §4, §5, §6, §7

[1] = molecular target: T3, Bombyx mori EcR (VP16-BmEcR, CVBE) (Bombyx mori, UniProt P49881); test: Z3 assay (HEK-293 clone Z3 with CVBE and 6x EcRE LacZ, β-galactosidase reporter); format: cell-based; conditions: 48 h, average of two wells
T3 construct: expressed in transfected cells
T3 sequence (P49881 86-606): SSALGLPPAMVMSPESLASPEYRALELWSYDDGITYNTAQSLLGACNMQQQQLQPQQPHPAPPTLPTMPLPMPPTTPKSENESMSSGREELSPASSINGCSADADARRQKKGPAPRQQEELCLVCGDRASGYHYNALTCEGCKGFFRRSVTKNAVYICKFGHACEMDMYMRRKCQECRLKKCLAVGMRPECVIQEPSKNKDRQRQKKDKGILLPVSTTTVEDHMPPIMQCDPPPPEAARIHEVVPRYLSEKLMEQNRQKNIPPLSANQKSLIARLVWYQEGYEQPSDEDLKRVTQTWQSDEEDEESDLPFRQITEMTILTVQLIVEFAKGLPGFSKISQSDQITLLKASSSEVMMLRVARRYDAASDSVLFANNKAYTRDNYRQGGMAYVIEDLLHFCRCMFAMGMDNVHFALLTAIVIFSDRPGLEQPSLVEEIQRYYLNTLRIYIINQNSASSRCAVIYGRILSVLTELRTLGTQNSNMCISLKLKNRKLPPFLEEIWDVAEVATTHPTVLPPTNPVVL

[2] = system: GAL4 DBD-CfEcR(DEF)/VP16AD-MmRXRE; conditions: CHO 13B3 clone, 48 h, average of two wells
From the text: GAL4 DBD-CfEcR(DEF)/VP16AD-MmRXRE: The wild-type D, E, and F domains from spruce budworm Choristoneura fumiferana EcR (“CfEcR-DEF”; SEQ ID NO: 1) were fused to a GAL4 DNA binding domain (“Gal4DBD1-147”; nucleotides 31 to 471 of SEQ ID NO: 2) and placed under the control of the SV40e promoter of pM vector (PT3119-5, Clontech, Palo Alto, Calif.). The D and E domains from Mus Musculus RXR (“MmRXR-DE”; SEQ ID NO: 22) were fused to the transactivation domain from VP16 (“VP16AD”; SEQ ID NO: 5) and placed under the control of the SV40e promoter of the pVP16 vector (PT3127-5, Clontech, Palo Alto, Calif.).
CHO cells were transiently transfected with transcription cassettes for GAL4 DBD-CfEcR(DEF) and for VP16AD-MmRXRE controlled by SV40e promoters. Stably transfected cells were selected using Hygromycin. Individually isolated CHO cell clones were transiently transfected with a GAL4 RE-luciferase reporter (pFR-Luc, Stratagene, La Jolla, Calif.). The 13B3 clone was selected using Zeocin.
(§1) Cells were trypsinized and diluted to a concentration of 2.5×10^4 cells mL. 100 μL of cell suspension was placed in each well of a 96 well plate and incubated at 37° C. under 5% CO2 for 24 h. Ligand stock solutions were prepared in DMSO and diluted 300 fold for all treatments.
(§2) Luciferase reporter gene expression was measured 48 h after cell treatment using Bright-Glo™ Luciferase Assay System from Promega (E2650). Luminescence was detected at room temperature using a Dynex MLX microtiter plate luminometer.
(§3) Each assay was conducted in two separate wells, and the two values were averaged. Fold inductions were calculated by dividing relative light units (“RLU”) in ligand treated cells with RLU in DMSO treated cells.

[3] = molecular target: T4, GAL4AaEcR-DEF/VP16HsRXRβ-EF (Aedes aegypti, UniProt P49880); test: Transactivation reporter assay, AaEcR based switch (1.4) in NIH3T3 cells; format: cell-based; conditions: mammalian cells; FIGS. 2-5
T4 construct: expressed in transfected cells; host or cells: mouse NIH3T3 cells
T4 sequence (P49880 405-776 limits assumed): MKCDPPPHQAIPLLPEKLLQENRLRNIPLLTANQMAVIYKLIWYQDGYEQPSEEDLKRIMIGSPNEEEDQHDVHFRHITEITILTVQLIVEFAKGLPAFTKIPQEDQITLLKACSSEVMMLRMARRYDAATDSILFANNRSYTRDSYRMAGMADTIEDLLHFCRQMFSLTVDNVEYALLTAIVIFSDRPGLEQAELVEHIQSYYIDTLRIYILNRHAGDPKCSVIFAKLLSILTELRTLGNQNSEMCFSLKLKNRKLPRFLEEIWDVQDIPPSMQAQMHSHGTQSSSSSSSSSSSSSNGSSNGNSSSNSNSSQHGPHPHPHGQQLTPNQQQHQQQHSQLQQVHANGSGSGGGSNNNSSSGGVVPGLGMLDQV
T4 sequence (P28702 299-533 partner limits assumed): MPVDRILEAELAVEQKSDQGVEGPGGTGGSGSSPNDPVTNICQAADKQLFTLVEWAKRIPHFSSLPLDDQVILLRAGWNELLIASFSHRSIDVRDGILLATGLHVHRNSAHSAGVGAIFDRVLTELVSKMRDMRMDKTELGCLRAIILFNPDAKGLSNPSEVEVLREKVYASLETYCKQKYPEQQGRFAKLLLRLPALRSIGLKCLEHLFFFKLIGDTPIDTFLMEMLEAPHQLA
Description: Total relative light units (RLU) are shown.
Twenty μl of lysate were assayed.

[4] = system: GAL4 DBD (1-147)-CfEcR(DEF)/VP16AD-βRXREF-LmUSPEF; conditions: CHO 27-63 clone, 48 h, average of two wells
From the text: GAL4 DBD (1-147)-CfEcR(DEF)/VP16AD-βRXREF-LmUSPEF: The wild-type D, E, and F domains from spruce budworm Choristoneura fumiferana EcR (“CfEcR-DEF”; SEQ ID NO: 1) were fused to a GAL4 DNA binding domain (“Gal4DBD1-147”; nucleotides 31 to 471 of SEQ ID NO: 2) and placed under the control of a phosphoglycerate kinase promoter (“PGK”; SEQ ID NO: 19). Helices 1 through 8 of the EF domains from Homo sapiens RXRβ and helices 9 through 12 of the EF domains of Locusta migratoria Ultraspiracle Protein (“HsRXRβ-EF-LmUSP-EF”; SEQ ID NO: 4) were fused to the transactivation domain from VP16 (“VP16AD”; SEQ ID NO: 5) and placed under the control of an elongation factor-1α promoter (“EF-1α”; SEQ ID NO: 20). Five consensus GAL4 response element binding sites (“5× GAL4RE”; comprising 5 copies of a GAL4RE comprising SEQ ID NO: 7) were fused to a synthetic TATA minimal promoter (SEQ ID NO: 21) and placed upstream of the luciferase reporter gene (SEQ ID NO: 9).
CHO cells were transiently transfected with transcription cassettes for GAL4 DBD (1-147) CfEcR(DEF) and for VP16AD βRXREF-LmUSPEF controlled by ubiquitously active cellular promoters (PGK and EF-1α, respectively) on a single plasmid. Stably transfected cells were selected by Zeocin resistance. Individually isolated CHO cell clones were transiently transfected with a GAL4 RE-luciferase reporter (pFR Luc). 27-63 clone was selected using Hygromycin.
as §1, with “treatments. Dose response testing consisted of 8 concentrations ranging from 33 μM to 0.01 μM.” for “treatments.”
as §2, §3

Structure (SMILES) | Fold Induction Average, AA_3T3V1 Assay 33 μM (Gal4DBD/AaEcR (DEF)) | Fold Induction (10 μM) (CfEcR + LmUSP) | Fold Induction (10 μM) (DmEcR + LmUSP) | Fold Induction (100 μM) (DmEcR + LmUSP) | Fold Induction Average, Z3V1 Assay 33 μM [1] | Fold Induction Average, 13B3V1 Assay 33 μM [2] | Activity on AaEcR based switches [3] | Fold Induction Average, 27-63V1 Assay 33 μM [4]
C[C@H]1C[C@@H](Nc2ccc(F)cc2)c2cc(F)ccc2N1C(=O)c1ccc(F)cc1 (relative stereo) [Compound I-8] | 153 fold | 3 fold | 2 fold | 7 fold |  |  |  | 
C[C@H]1C[C@H](Nc2ccc(F)cc2)c2cc(F)ccc2N1C(=O)c1ccc(F)cc1 (relative stereo) [Compound I-9] | 131 fold | 3 fold | 9 fold | 2 fold | 16 fold |  |  | 
C[C@H]1C[C@@H](Nc2ccc(F)cc2)c2cc(F)ccc2N1C(=O)c1ccccc1 (relative stereo) [Compound I-10] | 164 fold | 1 fold | 1 fold | 1 fold |  |  |  | 
C[C@H]1C[C@H](Nc2ccc(F)cc2)c2cc(F)ccc2N1C(=O)c1ccccc1 (relative stereo) [Compound I-11] | 387 fold | 1 fold | 5 fold | 3 fold | 32 fold |  |  | 
Cc1ccc(C(=O)N2c3ccc(F)cc3[C@@H](Nc3ccc(F)cc3)C[C@@H]2C)cc1F (relative stereo) [Compound I-12] | 504 fold |  |  |  | 169 fold | 815 fold | very active | 
COc1cccc(C(=O)N2c3ccc(C)cc3[C@@H](Nc3ccc(C)cc3)C[C@@H]2C)c1 (relative stereo) [Compound I-86] | 2 fold |  |  |  | 1 fold |  |  | 1 fold
COC(=O)c1ccc(C(=O)N2c3ccc(F)cc3C(Nc3ccc(F)cc3)CC2C)cc1 (stereo not drawn) [Compound I-94] | 798 fold |  |  |  | 48 fold |  |  | 32 fold
CC1CC(Nc2ccccc2)c2ccccc2N1C(=O)c1ccno1 (stereo not drawn) [Compound I-104] | 347 fold |  |  |  | 1 fold |  |  | 1 fold
COc1ccc(C(=O)N2c3c(C)cccc3C(Nc3ccccc3C)CC2C)cc1 (stereo not drawn) [Compound I-135] | 1 fold |  |  |  | 1 fold | 1 fold |  | 3 fold
CC1CC(N(C(=O)c2cccc(Br)c2)c2ccccc2)c2ccccc2N1C(=O)c1cccc(O)c1 (stereo not drawn) [Compound I-166] | 58 fold |  |  |  | 1 fold | 2 fold |  | 
CCCc1ccc(C(=O)N2c3ccccc3C(Nc3ccccc3)CC2C)cc1 (stereo not drawn) [Compound I-173] | 172 fold |  |  |  | 3 fold | 1 fold |  | 
CC1CC(Nc2ccccc2)c2ccccc2N1C(=O)COc1ccc(Cl)cc1 (stereo not drawn) [Compound I-180] | 9 fold |  |  |  | 1 fold | 1 fold |  | 
Cc1ccccc1NC1CC(C)N(C(=O)c2ccccc2)c2c(C)cccc21 (stereo not drawn) [Compound I-184] | 1 fold |  |  |  |  |  |  | 1 fold
CCNC(=O)N1c2ccccc2C(Nc2ccccc2)CC1C (stereo not drawn) [Compound I-210] | 12 fold |  |  |  |  |  |  | 1 fold
